Measurements published in patent US7585880B2, “Phenylpropanoic acid derivatives” (Takeda Pharmaceutical Company Limited, priority 2003, dated 2009).

Experiments:
human GPR40 = biological target: T1, human GPR40 (Homo sapiens, UniProt O14842); test: Determination of EC50 against human GPR40: intracellular calcium change by FLIPR in CHO cells; format: cell-based; conditions: CHO cell line that stably expressed human GPR40; changes in intracellular calcium concentration measured by FLIPR (Fluo3-AM)
T1 construct: expressed in transfected cells
Method: Determination of EC50 of the Compound of the Present Invention Against Human GPR40
For determination of EC50, CHO cell line that stably expressed human GPR40 was used. Unless otherwise indicated, the CHO cell line was cultured using α-MEM medium (Invitrogen) containing 10% fetal calf serum (Invitrogen).
The cells cultured to nearly confluent were rinsed with PBS (Invitrogen) on the previous day of the assay, peeled off with 0.05% Trypsin-EDTA solution (Invitrogen) and recovered by centrifugation. The number of the obtained cells was counted, and the cells were diluted such that 3×10^5 cells were contained per 1 mL of the medium, dispensed to a black welled 96-well plate (coster) by 100 μL per well and cultured overnight in a CO2 incubator. Various test compounds were added to the CHO cells thus prepared, and the changes in the intracellular calcium concentration was measured using FLIPR (Molecular Device). The below-mentioned pre-treatment was applied to measure changes in the intracellular calcium concentration by FLIPR.
An assay buffer for adding a fluorescent dye Fluo3-AM (DOJIN) to the cells, or for washing the cells immediately before FLIPR assay was prepared. To a solution of 1M HEPES (pH 7.4, DOJIN, 20 mL) added to HBSS (Invitrogen, 1000 mL) (hereinafter HBSS/HEPES solution) was added a solution (10 mL) obtained by dissolving probenecid (Sigma, 710 mg) in 1N NaOH (5 mL), and adding and mixing an HBSS/HEPES solution (5 mL), and the resulting solution was used as an assay buffer. Fluo3-AM (50 μg) was dissolved in dimethylsulfoxide (Wako, 21 μL), and an equivalent amount of 20% pluronic acid (Molecular Probes) was added and mixed. The solution was added to the assay buffer (10.6 mL) supplemented with fetal calf serum (105 μL) to give a fluorescent dye solution. On the previous day of assay, the medium of the CHO cells newly inoculated to the black welled 96-well plate was removed, the fluorescent dye solution was immediately dispensed by 100 μL per well and the cells were cultured in a CO2 incubator for 1 hr to allow intake of the fluorescent dye by the cells. The cells after the culture were washed with the above-mentioned assay buffer and set on FLIPR. The test compound was diluted with dimethylsulfoxide in advance, dispensed to polypropylene 96-well plate (sample plate) by 2 μL, and cryopreserved at −20° C. To the thawed sample plate was added an assay buffer containing 0.015% CHAPS (DOJIN) by 198 μL, and simultaneously set on FLIPR together with the cell plate. After the aforementioned pre-treatment, changes in the intracellular calcium concentration upon addition of various test compounds was measured by FLIPR. Based on the results, a dose-response curve of each test compound was formed and EC50 was calculated.

T1 sequence (O14842 whole entry): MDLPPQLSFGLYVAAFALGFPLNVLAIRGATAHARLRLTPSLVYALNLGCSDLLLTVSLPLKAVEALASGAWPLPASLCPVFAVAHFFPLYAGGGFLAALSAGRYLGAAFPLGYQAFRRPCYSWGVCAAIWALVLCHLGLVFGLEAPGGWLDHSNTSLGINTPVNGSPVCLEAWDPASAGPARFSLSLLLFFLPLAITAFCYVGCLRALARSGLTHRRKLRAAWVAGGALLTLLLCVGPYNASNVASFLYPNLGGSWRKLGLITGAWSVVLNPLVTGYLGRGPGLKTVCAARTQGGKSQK

Compound: CC(C)c1csc(N(CCc2ccccc2)Cc2ccc(COc3ccc(CCC(=O)O)cc3)cc2)n1 [Example 2, 3-{4-[(4-{[(4-isopropyl-1,3-thiazol-2-yl)(2-phenylethyl)amino]methyl}benzyl)oxy]phenyl}propanoic acid]
- EC50 (human GPR40): 48 nM

Compound: CC(C)c1csc(N(CCc2ccc(F)cc2)Cc2ccc(COc3ccc(CCC(=O)O)c(F)c3)cc2)n1 [Example 9, 3-{2-fluoro-4-[(4-{[[2-(4-fluorophenyl)ethyl](4-isopropyl-1,3-thiazol-2-yl)amino]methyl}benzyl)oxy]-phenyl}propanoic acid]
- EC50 (human GPR40): 38 nM

Compound: O=C(O)CCc1ccc(OCc2ccc(CN(CCc3ccccn3)c3nc(-c4ccccc4)cs3)cc2)cc1 [Example 12, 3-{4-[(4-([(4-phenyl-1,3-thiazol-2-yl)(2-pyridin-2-ylethyl)amino]methyl}benzyl)oxy]phenyl)propanoic acid]
- EC50 (human GPR40): 19 nM

Compound: O=C(O)CCc1ccc(OCc2ccc(CN(CCc3ccccc3)c3nc(-c4ccccc4)cs3)cc2)cc1 [Example 32, 3-[4-[[4-[[(2-phenylethyl)(4-phenyl-1,3-thiazol-2-yl)amino]methyl]benzyl]oxy]phenyl]propanoic acid]
- melting point: 114 to 115 °C

Compound: CCCN(Cc1ccc(COc2ccc(CCC(=O)O)cc2)cc1)c1nc(-c2ccccc2)c(C)o1 [Example 40, 3-[4-[[4-[[(5-methyl-4-phenyl-1,3-oxazol-2-yl)(propyl)amino]methyl]benzyl]oxy]phenyl]propanoic acid]
- EC50 (human GPR40): 55 nM

Compound: O=C(O)CCc1c(F)cc(OCc2ccc(CN(CCc3ccccc3)c3nc(-c4ccccc4)cs3)cc2)cc1F [Example 42, 3-[2,6-difluoro-4-[[4-[[(2-phenylethyl)(4-phenyl-1,3-thiazol-2-yl)amino]methyl]benzyl]oxy]phenyl]propanoic acid]
- EC50 (human GPR40): 65 nM
